Assay results: ChEMBL document CHEMBL1147224, “Resveratrol and two monomethylated stilbenes from Israeli Rumex bucephalophorus and their antioxidant potential” (J Nat Prod, 2003); call rule not given here

Assay: ABTS radical scavenging activity assessed as trolox equivalent antioxidant capacity after 10 mins
Type: physicochemical

Structure (SMILES) | Activity
COc1ccc(/C=C/c2cc(O)cc(O)c2)cc1 [RESVERATROL 4'-METHYL ETHER] | Active
COc1cc(O)cc(/C=C/c2ccc(O)cc2)c1 | Active
Oc1ccc(/C=C/c2cc(O)cc(O)c2)cc1 [RESVERATROL] | 2.74
